From ChEMBL document CHEMBL1201862, “PubChem BioAssay data set” (2004)
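Exposure lasted 48 hours, with cells grown in 96-well plates and compounds tested at five concentrations. Here, GI50 denotes the concentration required for 50% inhibition of growth.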 The source made the active and inactive calls. No stated cut-off is given here; in the data, active = GI50 up to about 1.1 µM and inactive = higher. Positions of bridges follow the written chain, without caps; N, C: chain ends. Non-standard residues stand in square brackets, D forms with d. Residues, ends and D or L forms follow the SMILES beside them. Aib = CC(C)(N)C(=O)O; βAla = NCCC(=O)O

Experiments:
Test in all cases: growth of human tumour cells (NCI), 48 h
[1] = test system: ACHN
[2] = test system: BT-549
[3] = test system: CCRF-CEM
[4] = test system: EKVX
[5] = test system: HCT-15
[6] = test system: Hs-578T
[7] = test system: K562
[8] = test system: LOX IMVI
[9] = test system: MCF7
[10] = test system: MDA-MB-231
[11] = test system: MOLT-4
[12] = test system: NCI-H460
[13] = test system: OVCAR-4
[14] = test system: SK-MEL-28
[15] = test system: T47D
[16] = test system: TK-10
[17] = test system: UACC-257
[18] = test system: UACC-62
[19] = test system: HCC 2998

| Compound | GI50 [1] | GI50 [2] | GI50 [3] | GI50 [4] | GI50 [5] [µM] | GI50 [6] | GI50 [7] | GI50 [8] | GI50 [9] | GI50 [10] | GI50 [11] | GI50 [12] | GI50 [13] | GI50 [14] | GI50 [15] | GI50 [16] | GI50 [17] | GI50 [18] | GI50 [19] |
| --- | --- | --- | --- | --- | --- | --- | --- | --- | --- | --- | --- | --- | --- | --- | --- | --- | --- | --- | --- |
| CCOC(=O)Cn1c(C(F)(F)F)nc2nc(Cl)c(Cl)nc21 | > 45.6 µM (inactive) | 54.8 µM (inactive) | 20 µM (inactive) | 10.5 µM (inactive) | 37.2 | 25 µM (inactive) | 26.7 µM (inactive) | 38.1 µM (inactive) | 23.3 µM (inactive) | 58.9 µM (inactive) | 26.6 µM (inactive) | 27.9 µM (inactive) | 15.2 µM (inactive) | 48.9 µM (inactive) | 33.3 µM (inactive) | 61.4 µM (inactive) | 19.6 µM (inactive) | 24.7 µM (inactive) |  |
| Oc1ccc(-c2ccccc2)nn1 | > 100 µM (inactive) | > 100 µM (inactive) | > 100 µM (inactive) | > 100 µM (inactive) | > 100 | > 100 µM (inactive) | > 100 µM (inactive) | > 100 µM (inactive) |  | > 100 µM (inactive) | > 100 µM (inactive) | > 100 µM (inactive) | > 100 µM (inactive) | > 100 µM (inactive) | > 100 µM (inactive) | > 100 µM (inactive) | > 100 µM (inactive) | > 100 µM (inactive) | > 100 µM (inactive) |
| CCC1([N+](=O)[O-])CC2C=CC1C2 (centres undefined) | > 100 µM (inactive) | > 100 µM (inactive) | > 100 µM (inactive) | > 100 µM (inactive) | > 100 | > 100 µM (inactive) | > 100 µM (inactive) | > 100 µM (inactive) | > 100 µM (inactive) | > 100 µM (inactive) | > 100 µM (inactive) | > 100 µM (inactive) | > 100 µM (inactive) | > 100 µM (inactive) | > 100 µM (inactive) | > 100 µM (inactive) | > 100 µM (inactive) | > 100 µM (inactive) |  |
| O/N=C1\CC2(N3CCOCC3)CCC1(c1ccccc1)CC2 | > 100 µM (inactive) | > 100 µM (inactive) | > 100 µM (inactive) | > 100 µM (inactive) | > 100 | > 100 µM (inactive) | > 100 µM (inactive) | > 100 µM (inactive) | > 100 µM (inactive) |  | > 100 µM (inactive) | > 100 µM (inactive) | > 100 µM (inactive) | > 100 µM (inactive) | > 100 µM (inactive) | > 100 µM (inactive) | > 100 µM (inactive) | > 100 µM (inactive) | > 100 µM (inactive) |
| Cc1ccc(S(=O)(=O)N2CCSCCSCCSCCN(S(=O)(=O)c3ccc(C)cc3)CC2)cc1 | > 100 µM (inactive) | > 100 µM (inactive) |  | > 100 µM (inactive) |  | > 100 µM (inactive) | > 100 µM (inactive) |  | > 100 µM (inactive) | > 100 µM (inactive) | > 100 µM (inactive) | > 100 µM (inactive) | > 100 µM (inactive) | > 100 µM (inactive) | > 100 µM (inactive) | > 100 µM (inactive) | > 100 µM (inactive) | > 100 µM (inactive) | > 100 µM (inactive) |
| O=S(=O)(CCC[C@H]1[C@@H](CCOCc2ccccc2)C2CCCN1O2)c1ccccc1 (some centres undefined) | > 100 µM (inactive) | 41 µM (inactive) | > 100 µM (inactive) | 57.3 µM (inactive) | > 100 | > 100 µM (inactive) | 63.2 µM (inactive) |  | > 100 µM (inactive) | > 100 µM (inactive) | 65.3 µM (inactive) | > 100 µM (inactive) | > 100 µM (inactive) | > 100 µM (inactive) | 59.2 µM (inactive) | > 100 µM (inactive) | > 100 µM (inactive) | > 100 µM (inactive) | > 100 µM (inactive) |
| Cc1ccc(NC(=O)/C(Cc2nc3ccc([N+](=O)[O-])cc3nc2O)=N\NC(=O)C[n+]2ccccc2)c(C)c1 | 20.5 µM (inactive) | > 100 µM (inactive) | 26.6 µM (inactive) | 26.7 µM (inactive) | 49.4 | 86.1 µM (inactive) |  | 59 µM (inactive) | 38.5 µM (inactive) | 18.4 µM (inactive) | 30.7 µM (inactive) | 26.8 µM (inactive) | 23 µM (inactive) | 77.4 µM (inactive) |  | 21.2 µM (inactive) | 49.4 µM (inactive) | 55.1 µM (inactive) | > 100 µM (inactive) |
| COc1ccc2c3c1O[C@H]1C(=O)C=CC4(n5[nH]c(=O)n(-c6ccccc6)c5=O)C(C2)N(C)CCC314 (some centres undefined) | > 100 µM (inactive) | > 100 µM (inactive) | > 100 µM (inactive) | > 100 µM (inactive) | > 100 | > 100 µM (inactive) | > 100 µM (inactive) | > 100 µM (inactive) | > 100 µM (inactive) | > 100 µM (inactive) | > 100 µM (inactive) |  | > 100 µM (inactive) | > 100 µM (inactive) | > 100 µM (inactive) | > 100 µM (inactive) |  | > 100 µM (inactive) |  |
| CC1=NN2CCC(=O)N=C2S1 | > 100 µM (inactive) | > 100 µM (inactive) | > 100 µM (inactive) | > 100 µM (inactive) | > 100 | > 100 µM (inactive) | > 100 µM (inactive) | > 100 µM (inactive) | > 100 µM (inactive) | > 100 µM (inactive) | > 100 µM (inactive) | > 100 µM (inactive) | > 100 µM (inactive) | > 100 µM (inactive) | > 100 µM (inactive) | > 100 µM (inactive) | > 100 µM (inactive) | > 100 µM (inactive) |  |
| CN1C(=O)c2ccc3ccccc3c2C1=O | > 100 µM (inactive) | > 100 µM (inactive) | > 100 µM (inactive) | 14 µM (inactive) | > 100 | 73.1 µM (inactive) | > 100 µM (inactive) |  | > 100 µM (inactive) | > 100 µM (inactive) | > 100 µM (inactive) | > 100 µM (inactive) | > 100 µM (inactive) | > 100 µM (inactive) | 63.5 µM (inactive) | > 100 µM (inactive) | > 100 µM (inactive) | > 100 µM (inactive) | > 100 µM (inactive) |
| CC(C)(C)C1CCC2c3c([nH]c4ccccc34)C3C(=O)N(c4ccccc4[N+](=O)[O-])C(=O)C3C2C1 (centres undefined) | 9.1 µM (inactive) | 21.7 µM (inactive) | 12.6 µM (inactive) | 11.4 µM (inactive) | 11.2 | 14.4 µM (inactive) | 11.9 µM (inactive) | 11.9 µM (inactive) | 3.1 µM (inactive) | 10.6 µM (inactive) | > 10 µM (inactive) | 4.25 µM (inactive) |  |  |  | 17.7 µM (inactive) | 22.2 µM (inactive) | 12.2 µM (inactive) | 4.14 µM (inactive) |
| CC1(C)NC(=O)C(NC(=O)C(N)CC(=O)O)CCCCNC(=O)CCNC1=O (centres undefined) (H-DK[Aib][βAla]; lactam 2-C; configuration not given here) | > 100 µM (inactive) | > 100 µM (inactive) | > 100 µM (inactive) | > 100 µM (inactive) | > 100 | > 100 µM (inactive) | > 100 µM (inactive) | > 100 µM (inactive) | > 100 µM (inactive) | > 100 µM (inactive) | > 100 µM (inactive) | > 100 µM (inactive) | > 100 µM (inactive) | > 100 µM (inactive) | > 100 µM (inactive) | > 100 µM (inactive) | > 100 µM (inactive) | > 100 µM (inactive) |  |
